Values after ≈ are worked out from the molar mass of the structure shown. Like-named read-outs stand apart in the source and are kept apart here.
Columns and labels:
[1] = test system: Staphylococcus aureus-MRSA; test: Antimicrobial well method, zone of inhibition; type: cell-based
Protocol: (§1) Antimicrobial activity was carried out as described previously. Briefly, 20 mL of sterile Mueller Hinton agar (MHA) was poured in the petri plates and kept for solidification. After solidification, the test cultures were swabbed on the top of the media and kept for 10 min to dry. The required concentration (1 mg/well) of synthesized compounds 5a–l was added to each well and left for 30 min at RT for compound diffusion. Ketoconazole (fungi) and streptomycin (bacteria) used for positive controls. The zone of inhibition was recorded in mm and the experiment was repeated twice.

Micrococcus luteus [2] = test: Antimicrobial well method, zone of inhibition; type: cell-based
Protocol: as §1

Salmonella typhimurium [3] = test: Antimicrobial well method, zone of inhibition; type: cell-based; settings: Salmonella enterica
Protocol: as §1

Salmonella paratyphi-B [4] = test: Antimicrobial well method, zone of inhibition; type: cell-based
Protocol: as §1

Klebsiella pneumoniae [5] = test: Antimicrobial well method, zone of inhibition; type: cell-based
Protocol: as §1

Staphylococcus aureus [6] = test: Antimicrobial well method, zone of inhibition; type: cell-based
Protocol: as §1

Enterobacter aerogenes [7] = test: Antimicrobial well method, zone of inhibition; type: cell-based; settings: Klebsiella aerogenes
Protocol: as §1

Proteus vulgaris [8] = test: Antimicrobial well method, zone of inhibition; type: cell-based
Protocol: as §1

[9] = test system: Staphylococcus epidermidis; test: Antimicrobial well method, zone of inhibition; type: cell-based
Protocol: as §1

[10] = test system: Staphylococcus aureus-MRSA; test: Minimum inhibitory concentration (MIC); type: cell-based; settings: read-out: Minimum inhibitory concentration
Protocol: (§2) The MIC experiment was carried out according to the standard reference methods. Briefly, the required concentrations of synthesized compounds 5a–l were dissolved in DMSO (Dimethylsulfoxide) in concentrations of 500 µg/mL, 250 µg/mL, 125 µg/mL, 62.5 µg/mL, 31.25 µg/mL, 15.6 µg/mL, and […]. An inoculum of 100 µL from each well (96-well plate) was inoculated. For the positive control, ketoconazole (fungi) and streptomycin (bacteria) was used. The MIC values for the tested bacteria were identified as the lowest inhibiting concentration of compound on the agar plate in visual growth.

Micrococcus luteus [11] = test: Minimum inhibitory concentration (MIC); type: cell-based; settings: read-out: Minimum inhibitory concentration
Protocol: as §2

Salmonella typhimurium [12] = test: Minimum inhibitory concentration (MIC); type: cell-based; settings: Salmonella enterica, read-out: Minimum inhibitory concentration
Protocol: as §2

Salmonella paratyphi-B [13] = test: Minimum inhibitory concentration (MIC); type: cell-based
Protocol: as §2

Klebsiella pneumoniae [14] = test: Minimum inhibitory concentration (MIC); type: cell-based; settings: read-out: Minimum inhibitory concentration
Protocol: as §2

Staphylococcus aureus [15] = test: Minimum inhibitory concentration (MIC); type: cell-based; settings: read-out: Minimum inhibitory concentration
Protocol: as §2

Enterobacter aerogenes [16] = test: Minimum inhibitory concentration (MIC); type: cell-based; settings: Klebsiella aerogenes; Enterobacter aerogenes; read-out: Minimum inhibitory concentration
Protocol: as §2

Proteus vulgaris [17] = test: Minimum inhibitory concentration (MIC); type: cell-based; settings: read-out: Minimum inhibitory concentration
Protocol: as §2

[18] = test system: Staphylococcus epidermidis; test: Minimum inhibitory concentration (MIC); type: cell-based; settings: read-out: Minimum inhibitory concentration
Protocol: as §2

Shigella flexneri [19] = test: Minimum inhibitory concentration (MIC); type: cell-based
Protocol: as §2

Shigella flexneri [20] = test: Antimicrobial well method, zone of inhibition; type: cell-based
Protocol: as §1

Malassezia pachydermatis = test: Antimicrobial well method, zone of inhibition; type: cell-based
Protocol: as §1

Candida albicans = test: Antimicrobial well method, zone of inhibition; type: cell-based; settings: 1 mg/well
Protocol: as §1

IMR90 cells = test: Cytotoxicity on normal cells, MTT; type: cell-based; settings: IMR-90, human normal IMR90 cells, 24 h treatment, read-out: IC50 against IMR90
Protocol: (§3) The cytotoxic study was carried out as reported previously. Briefly, IMR90, HepG-2, and A549 cells were grown in DMEM (Dulbecco’s Modified Eagle Medium) that contained 10% fetal bovine serum and 1% antibiotics. A total of 15 × 10^3 cells/well were seeded in 96-well plates and incubated under humidified conditions. Cells were treated with varying concentrations of synthesized triazoles for 24 h. After a 24 h treatment, 20 µL aqueous one solution reagent was added to each well and incubated for 3–4 h under a humidified condition. For IMR90 cells, MTT (MTT = 3-(4,5-dimethyl-2-thiazolyl)-2,5-diphenyl-2H-tetrazolium bromide) (5 mg/mL) was added and incubated for 3–4 h in the dark. After incubation, 100 µL of a 10% SDS (Sodium Dodecyl Sulfate) solution (0.01% HCl) was added to each well. The data was taken using an ELISA (enzyme-linked immunosorbent assay) reader at the absorbance of 490 nm for HepG-2 and A549 cells and 570 nm for IMR90 cells. The cell death was calculated using the following formula: Inhibition (%) = ((A − B)/A) × 100 (A—control group, B—treated group).

HepG-2 cells = test: Cytotoxicity, aqueous one solution reagent; type: cell-based; settings: for IC50: read-out: IC50 against HepG-2
Protocol: as §3

A549 cells = test: Cytotoxicity, aqueous one solution reagent; type: cell-based; settings: for IC50: 24 h treatment, read-out: IC50 against A549
Protocol: as §3

[21] = Homo sapiens, HepG2, 24 h treatment

Structure (SMILES) | melting point | zone of inhibition at 1 mg/well [1] | zone of inhibition at 1 mg/well (Micrococcus luteus [2]) | zone of inhibition at 1 mg/well (Salmonella typhimurium [3]) | zone of inhibition at 1 mg/well (Salmonella paratyphi-B [4]) | zone of inhibition at 1 mg/well (Klebsiella pneumoniae [5]) | zone of inhibition at 1 mg/well (Staphylococcus aureus [6]) | zone of inhibition at 1 mg/well (Enterobacter aerogenes [7]) | zone of inhibition at 1 mg/well (Proteus vulgaris [8]) | zone of inhibition at 1 mg/well [9] | MIC ([10]; Staphylococcus aureus-MRSA) | MIC (Micrococcus luteus [11]) | MIC (Salmonella paratyphi-B [13]) | MIC (Klebsiella pneumoniae [14]) | MIC (Staphylococcus aureus [15]) | MIC (Enterobacter aerogenes [16]) | MIC [18] | MIC (Shigella flexneri [19]) | zone of inhibition at 1 mg/well (Shigella flexneri [20]) | zone of inhibition at 1 mg/well (Malassezia pachydermatis) | other results
C[C@@H]([C@@H](c1ccccc1)n1cc(CC2(O)CCCCC2)nn1)N1CCCC1 [5b, (1R,2S)-1-((1-(1-Phenyl-2-(pyrrolidin-1-yl)propyl)-1H-1,2,3-triazol-4-yl)methyl) cyclohexanol] | 137 to 138 °C | 12 mm | 13 mm | 11 mm | 11 mm | 10 mm | 10 mm | 12 mm | 12 mm | 10 mm |  |  |  |  |  |  |  |  |  |  | 
C[C@@H]([C@@H](c1ccccc1)n1cc(COC(=O)C=Cc2ccccc2)nn1)N1CCCC1 [5c, (1R,2S)-(1-(1-Phenyl-2-(pyrrolidin-1-yl)propyl)-1H-1,2,3-triazol-4-yl)methyl cinnamate] | 140 to 141 °C | 18 mm | 16 mm | 12 mm | 14 mm | 12 mm | 16 mm | 14 mm | 10 mm | 15 mm | 125 µg/mL (≈ 300 µM) | 125 µg/mL (≈ 300 µM) | 250 µg/mL (≈ 600 µM) | 500 µg/mL (≈ 1200 µM) | 125 µg/mL (≈ 300 µM) | 250 µg/mL (≈ 600 µM) | 250 µg/mL (≈ 600 µM) | 250 µg/mL (≈ 600 µM) | 13 mm |  | MIC (Salmonella typhimurium [12]; Salmonella typhimurium): 500 µg/mL (≈ 1200 µM); MIC (Proteus vulgaris [17]): 500 µg/mL (≈ 1200 µM)
C[C@@H]([C@@H](c1ccccc1)n1cc(COC(=O)c2ccccc2)nn1)N1CCCC1 [5d, (1R,2S)-(1-(1-Phenyl-2-(pyrrolidin-1-yl)propyl)-1H-1,2,3-triazol-4-yl)methyl benzoate] | 129 to 130 °C | 16 mm | 19 mm | 12 mm | 14 mm |  | 13 mm | 10 mm |  | 13 mm | 125 µg/mL (≈ 320 µM) | 62.5 µg/mL (≈ 160 µM) | 250 µg/mL (≈ 640 µM) |  | 250 µg/mL (≈ 640 µM) | 500 µg/mL (≈ 1280 µM) | 250 µg/mL (≈ 640 µM) | 250 µg/mL (≈ 640 µM) | 13 mm | 10 mm | MIC (Salmonella typhimurium [12]; Salmonella typhimurium): 500 µg/mL (≈ 1280 µM); zone of inhibition (Candida albicans): 13 mm
COc1ccc(Br)c(C(=O)OCc2cn(C(c3ccccc3)C(C)N3CCCC3)nn2)c1 [5e, (1R,2S)-(1-(1-Phenyl-2-(pyrrolidin-1-yl)propyl)-1H-1,2,3-triazol-4-yl)methyl-2-bromo-5-methoxy benzoate] |  | 10 mm | 15 mm | 12 mm | 10 mm | 10 mm | 12 mm | 10 mm | 13 mm | 10 mm |  |  |  |  |  |  |  |  | 15 mm | 14 mm | IC50 (IMR90 cells): > 250 µM; cytotoxic activity against HepG-2 cells (HepG-2 cells): moderate activity; IC50 (HepG-2 cells; [21]): 164 ± 2.01 µM; cytotoxic / anticancer activity against A549 cells (A549 cells): promising anticancer activity; IC50 (A549 cells; Homo sapiens): 130 ± 0.65 µM; zone of inhibition (Candida albicans): 15 mm
CC([C@@H](c1ccccc1)n1cc(CN(C)[C@@H](C)Cc2ccccc2)nn1)N1CCCC1 (stereo partly drawn) [5f, (1R,2S)-N-Methyl-1-phenyl-N-((1-(1-phenyl-2-(pyrrolidin-1-yl)propyl)-1H-1,2,3-triazol-4-yl)methyl)propan-2-amine] | 118 to 119 °C | 15 mm | 13 mm |  | 14 mm | 18 mm |  |  |  | 17 mm | 250 µg/mL (≈ 599 µM) | 250 µg/mL (≈ 599 µM) | 250 µg/mL (≈ 599 µM) | 125 µg/mL (≈ 299 µM) |  |  | 125 µg/mL (≈ 299 µM) | 62.5 µg/mL (≈ 150 µM) | 19 mm | 12 mm | 
CC(C(c1ccccc1)n1cc(COC(=O)c2ccc(C(C)(C)C)cc2)nn1)N1CCCC1 [5i, (1R,2S)-(1-(1-Phenyl-2-(pyrrolidin-1-yl)propyl)-1H-1,2,3-triazol-4-yl)methyl 4-tert-butyl benzoate] |  | 14 mm | 16 mm |  | 12 mm | 12 mm | 16 mm | 14 mm |  | 11 mm | 250 µg/mL (≈ 560 µM) | 125 µg/mL (≈ 280 µM) | 500 µg/mL (≈ 1120 µM) | 500 µg/mL (≈ 1120 µM) | 125 µg/mL (≈ 280 µM) | 250 µg/mL (≈ 560 µM) | 500 µg/mL (≈ 1120 µM) | 250 µg/mL (≈ 560 µM) | 14 mm | 10 mm | IC50 (IMR90 cells): > 250 µM; cytotoxic activity against HepG-2 cells (HepG-2 cells): moderate activity; IC50 (HepG-2 cells; [21]): 197 ± 2.34 µM; cytotoxic / anticancer activity against A549 cells (A549 cells): promising anticancer activity; IC50 (A549 cells; Homo sapiens): 134 ± 1.05 µM; zone of inhibition (Candida albicans): 12 mm
CCC(C(=O)OCc1cn(C(c2ccccc2)C(C)N2CCCC2)nn1)c1ccccc1 [5l, (1R,2S)-((1-(1-Phenyl-2-(pyrrolidin-1-yl)propyl)-1H-1,2,3-triazol-4-yl)methyl 2-phenylbutanoate] | 127 to 129 °C |  |  |  |  |  |  |  |  |  |  |  |  |  |  |  |  |  |  | 12 mm | 
N.N.[Cl][Pt][Cl] [Cisplatin, reference compound] |  |  |  |  |  |  |  |  |  |  |  |  |  |  |  |  |  |  |  |  | IC50 (HepG-2 cells; 24 h treatment): 22.1 ± 3.08 µM; IC50 (A549 cells): 16.4 ± 3.19 µM
CC(=O)N1CCN(c2ccc(OCC3COC(Cn4ccnc4)(c4ccc(Cl)cc4Cl)O3)cc2)CC1 (stereo not shown) [Ketoconazole, reference compound] |  |  |  |  |  |  |  |  |  |  |  |  |  |  |  |  |  |  |  | 26 mm | zone of inhibition (Candida albicans): 28 mm
[H]/N=C(/N)N[C@H]1[C@H](O)[C@@H](O)[C@H](O[C@@H]2O[C@@H](C)[C@](O)(C=O)[C@H]2O[C@@H]2O[C@@H](CO)[C@H](O)[C@@H](O)[C@@H]2NC)[C@@H](N/C(N)=N\[H])[C@@H]1O [Streptomycin, reference compound] |  | 30 mm | 26 mm | 24 mm | 18 mm | 20 mm | 14 mm | 22 mm | 30 mm | 26 mm |  | 6.25 µg/mL (≈ 10.7 µM) | 30 µg/mL (≈ 51.6 µM) | 25 µg/mL (≈ 43 µM) | 6.25 µg/mL (≈ 10.7 µM) | 25 µg/mL (≈ 43 µM) | 25 µg/mL (≈ 43 µM) | 6.25 µg/mL (≈ 10.7 µM) | 30 mm |  | MIC ([10]; Staphylococcus, MRSA): 6.25 µg/mL (≈ 10.7 µM); MIC (Salmonella typhimurium [12]; TYPHIMURIUM): 6.25 µg/mL (≈ 10.7 µM); MIC (Proteus vulgaris [17]): 6.25 µg/mL (≈ 10.7 µM)
